From patent publication US20260092061A1, “COMPOUNDS FOR TARGETED PROTEIN DEGRADATION” (Amphista Therapeutics Limited, priority 2022, published 2026)
Where two headings read alike, the source gives them in different places.

Assays:
Type in all cases: cell-based
BRD4 = target: T1, BRD4 (Homo sapiens, UniProt O60885); assay: BRD4 degradation, HiBiT-BRD4 HEK293 CRISPR CPM cells, NanoGlo Lytic Endpoint assay (Assay Protocol 1); conditions: Table 3, assay 1; for Dmax: HEK293, 1 μM compound at 5 h of treatment; for DC50: 5 h of treatment
T1 construct: HiBiT-BRD4 HEK293 CRISPR CPM (Promega CS302312); host or cells: HEK293, CRISPR-edited (HiBiT at the BRD4 locus)

BRD9 [1] = target: T2, BRD9 (Homo sapiens, UniProt Q9H8M2); assay: BRD9 degradation, HiBiT-BRD9 KI HEK293 (LgBiT) cells, NanoGlo Lytic Endpoint assay (Assay Protocol 1); conditions: Table 3; assay 1; 5 h of treatment
T2 sequence (Q9H8M2 1-597): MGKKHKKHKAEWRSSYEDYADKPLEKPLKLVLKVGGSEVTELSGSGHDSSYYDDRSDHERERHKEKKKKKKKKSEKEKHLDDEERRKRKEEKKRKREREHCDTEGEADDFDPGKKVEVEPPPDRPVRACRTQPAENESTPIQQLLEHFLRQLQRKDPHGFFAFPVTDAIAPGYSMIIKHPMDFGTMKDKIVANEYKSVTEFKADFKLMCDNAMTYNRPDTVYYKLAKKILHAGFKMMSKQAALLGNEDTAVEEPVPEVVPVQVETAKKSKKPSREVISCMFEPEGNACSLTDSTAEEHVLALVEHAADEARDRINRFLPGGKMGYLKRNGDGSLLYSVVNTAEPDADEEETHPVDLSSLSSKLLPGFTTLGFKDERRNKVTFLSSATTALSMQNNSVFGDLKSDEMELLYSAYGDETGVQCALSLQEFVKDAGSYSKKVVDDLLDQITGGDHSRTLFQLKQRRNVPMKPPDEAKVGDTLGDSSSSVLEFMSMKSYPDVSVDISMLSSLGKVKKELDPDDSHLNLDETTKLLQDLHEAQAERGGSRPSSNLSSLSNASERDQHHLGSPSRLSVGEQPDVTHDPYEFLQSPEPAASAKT

BRD9 [2] = target: T2, BRD9; assay: as above; conditions: for Dmax at 1 µM: HEK293; for DC50: 6 h of treatment, read-out: Assay 1 DC50
Outline: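 HiBiT-tagged BRD9 knock-in HEK293 (LgBiT) cells exposed to compounds for 6 h at 37 °C, 5% CO2. Residual BRD9 measured by HiBiT lytic luminescence. % BRD9 remaining normalised to DMSO-treated cells (high) and no-cell wells (low).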

BRD7 = target: T3, BRD7 (Homo sapiens, UniProt Q9NPI1); assay: BRD7 degradation, HiBiT-BRD7 KI HEK293 (LgBiT) cells, NanoGlo Lytic Endpoint assay (Assay Protocol 1); conditions: HEK293; Table 3; assay 1; 1 μM compound at 5 h of treatment
T3 construct: HiBiT-BRD7 KI HEK293 (LgBiT) Cells (Promega CS3023410); host or cells: HEK293 (LgBiT), HiBiT knock-in at the BRD7 locus
T3 sequence (Q9NPI1 1-651): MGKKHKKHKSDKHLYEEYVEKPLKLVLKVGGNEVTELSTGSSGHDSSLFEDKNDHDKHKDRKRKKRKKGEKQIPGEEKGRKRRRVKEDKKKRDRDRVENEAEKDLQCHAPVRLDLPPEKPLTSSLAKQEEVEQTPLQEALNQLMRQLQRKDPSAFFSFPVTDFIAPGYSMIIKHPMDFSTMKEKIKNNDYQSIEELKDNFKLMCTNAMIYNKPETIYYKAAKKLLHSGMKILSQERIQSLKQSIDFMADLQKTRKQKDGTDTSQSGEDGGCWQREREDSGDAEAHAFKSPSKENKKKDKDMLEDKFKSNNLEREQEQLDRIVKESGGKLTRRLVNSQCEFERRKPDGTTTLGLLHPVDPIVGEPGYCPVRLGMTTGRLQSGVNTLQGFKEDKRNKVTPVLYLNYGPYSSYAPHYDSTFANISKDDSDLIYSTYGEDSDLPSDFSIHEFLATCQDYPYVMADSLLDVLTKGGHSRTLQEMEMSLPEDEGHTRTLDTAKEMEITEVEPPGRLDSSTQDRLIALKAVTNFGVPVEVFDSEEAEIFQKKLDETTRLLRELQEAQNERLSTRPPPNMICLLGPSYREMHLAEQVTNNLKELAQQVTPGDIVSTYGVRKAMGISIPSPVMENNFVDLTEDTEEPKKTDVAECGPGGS
Method: HiBiT-BRD9 KI HEK293 (LgBiT) Cells (Promega CS3023412) were seeded at 8000 cells per well (38 μL) in sterile white bottom 384 well plates (Invitrogen 164610 or Greiner 781080) and incubated overnight at 37° C. with 5% CO2. The next day, compounds were prepared at 1000× final concentration in DMSO and diluted 1:100 in media (DMEM PAN Biotech P04-03550+10% FBS ATCC 302025). […] The lytic buffer was equilibrated to room temperature for 10-15 min before lytic reagent was prepared by adding substrate (1:50) and LgBit protein (1:100) in lytic buffer. 40 μL lytic reagent mix was added to each well of the cel plate and plates were centrifuged briefly at ˜50g. Plates were incubated with shaking (350 RPM) for 12-24 min before reading using the LUM plus module of a BMG Pherastar FSX. Data was analysed using Dotmatics software and % BRD9 remaining was calculated by normalisation to average data from high and low control wells (DMSO treated cels and no cells respectively).
BRD7 degradation was determined in line with the procedure as outlined above for BRD9, with the exception that HiBiT-BRD7 KI HEK293 (LgBiT) Cells (Promega CS3023410) were seeded at 8000 cells per well (CPW) (36 uL) in sterile white bottom 384 well plates (Invitrogen 164610 or Greiner 781080) and incubated overnight at 37° C. with 5% CO2.

[3] = Table 2, BRD9 degradation, Assay Protocol 1, 1 μM compound at 6 h of treatment, read-out: Assay 1 Dmax
[4] = Table 3, assay 1, 1 μM compound at 5 h of treatment, read-out: BRD9 Dmax (%)
[5] = Table 2, BRD9 degradation, Assay Protocol 1

Dmax (BRD4) [%]	DC50 (BRD9 [1]) [nM]	Dmax at 1 µM (BRD9 [2]; [3]) [%]	Dmax at 1 µM (BRD9 [2]; [4]) [%]	DC50 (BRD9 [2]; [5]) [nM]	Dmax at 1 µM (BRD7) [%]	DC50 (BRD4) [nM]	Compound
< 25	1.25 to 10	40 to 70	40 to 70	1.25 to 10	25 to 40	–	COc1cc(-c2cn(C)c(=O)c(C)c2C)cc(OC)c1CN1CCN(Cc2cccc3c2CCN(C(=O)/C(C#N)=C/c2ncc(C)s2)C3C)CC1 (mixture of isomers) [Compound A29]
40 to 70	< 1.25	40 to 70	40 to 70	< 1.25	< 25	25 to 1000	COc1cc(-c2cc(C)c(=O)n(C)c2)cc(OC)c1CN1CCN(Cc2cccc3c2CCN(C(=O)/C(C#N)=C/c2cccc(Br)n2)C3C)CC1 (mixture of isomers) [Compound A60]
40 to 70	< 1.25	> 75	> 75	< 1.25	< 25	25 to 1000	COc1cc(-c2cc(C)c(=O)n(C)c2)cc(OC)c1CN1CCN(Cc2cccc3c2CCN(C(=O)/C(C#N)=C/C2(F)CC2)C3C)CC1 (mixture of isomers) [Compound A61, (E/Z)-2-(5-((4-(4-(1,5-dimethyl-6-oxo-1,6-dihydropyridin-3-yl)-2,6-dimethoxybenzyl)piperazin-1-yl)methyl)-1-methyl-1,2,3,4-tetrahydroisoquinoline-2-carbonyl)-3-(1-fluorocyclopropyl) acrylonitrile]
